{"source": "ChEMBL document CHEMBL6078646", "about": "“Target Ligand Separation and Identification of Isoforsythiaside as a Histone Lysine-Specific Demethylase 1 Covalent Inhibitor Against Breast Cancer Metastasis” (J Med Chem, 2024)", "key": {"[1]": {"experiment": "Toxicity in female Balb/c mouse assessed as effect on WBC level at 50 mg/kg, ip administered every other day for 7 times", "assay_type": "organism-based", "conditions": "in vivo"}, "[2]": {"experiment": "Toxicity in female Balb/c mouse assessed as histological changes in liver at 50 mg/kg, ip administered every other day for 7 times by H and E staining based analysis", "assay_type": "organism-based", "conditions": "in vivo"}, "[3]": {"experiment": "Retention time of the compound by HPLC-MS/MS analysis", "assay_type": "physicochemical"}, "MDA-MB-231 [4]": {"tested_on": "MDA-MB-231", "experiment": "Antimetastatic activity against human MDA-MB-231 cells expressing luciferase xenografted in female Balb/c nude mouse assessed as reduction in fluorescence intensity in lungs at 25 mg/kg, ip administered every 3 days and measured on day 15 by bioluminescence imaging analysis relative to control", "assay_type": "functional", "design": "scale not given: the % may be the effect or the level left", "conditions": "time 15 day"}, "MDA-MB-231 [5]": {"tested_on": "MDA-MB-231", "experiment": "Effect on E-cadherin protein expression in LSD1 knockout human MDA-MB-231 cells at 16 uM by Western blot analysis", "assay_type": "functional, cell-based"}, "MDA-MB-231 [6]": {"tested_on": "MDA-MB-231", "experiment": "Antimetastatic activity against LSD1 knockout human MDA-MB-231 cells xenografted in mouse model assessed as reduction in number of metastatic nodules in the lung measured after 27 days", "assay_type": "functional, cell-based", "conditions": "time 27.0 day"}, "MDA-MB-231 [7]": {"tested_on": "MDA-MB-231", "experiment": "Inhibition of Twist1 production in human MDA-MB-231 cells by Western blotting analysis", "assay_type": "functional, cell-based"}, "MDA-MB-231 [8]": {"tested_on": "MDA-MB-231", "experiment": "Antimetastatic activity against human MDA-MB-231 cells expressing luciferase xenografted in female Balb/c nude mouse assessed as reduction in lung metastasis at 12 to 50 mg/kg, ip administered every 3 days and measured on day 30 by bioluminescence imaging analysis", "assay_type": "functional, organism-based", "conditions": "dose 12-50 mg/kg, time 30.0 day"}, "MDA-MB-231 [9]": {"tested_on": "MDA-MB-231", "experiment": "Upregulation of H3K4me2 protein expression in human MDA-MB-231 cells by Western blot analysis", "assay_type": "functional, cell-based", "conditions": "dose 4-32 µM"}}, "note": "The source made the active and inactive calls. No cut-off for these calls is given here.", "data": [{"smiles": "C[C@@H]1O[C@H](OC[C@H]2O[C@@H](OCCc3ccc(O)c(O)c3)[C@H](O)[C@@H](OC(=O)/C=C/c3ccc(O)c(O)c3)[C@@H]2O)[C@H](O)[C@H](O)[C@H]1O", "values": [{"measurement": "Activity", "setting": "[1]", "value": "Non-toxic"}, {"measurement": "Activity", "setting": "[2]", "value": "Non-toxic"}, {"measurement": "Retention_time", "setting": "[3]", "value": 18.4, "unit": "min"}, {"measurement": "Activity", "setting": "MDA-MB-231 [4]", "value": 46.4, "unit": "%"}, {"measurement": "Activity", "setting": "MDA-MB-231 [5]", "value": "inactive"}, {"measurement": "Activity", "setting": "MDA-MB-231 [6]", "value": "Active"}, {"measurement": "inhibition", "setting": "MDA-MB-231 [7]", "value": "Dose-dependent-effect"}, {"measurement": "Activity", "setting": "MDA-MB-231 [8]", "value": "Active"}, {"measurement": "Activity", "setting": "MDA-MB-231 [9]", "value": "Dose-dependent-effect"}]}]}
